One data set deals with T1, HGFA (Homo sapiens, UniProt Q04756).
T1 sequence (Q04756 373-655): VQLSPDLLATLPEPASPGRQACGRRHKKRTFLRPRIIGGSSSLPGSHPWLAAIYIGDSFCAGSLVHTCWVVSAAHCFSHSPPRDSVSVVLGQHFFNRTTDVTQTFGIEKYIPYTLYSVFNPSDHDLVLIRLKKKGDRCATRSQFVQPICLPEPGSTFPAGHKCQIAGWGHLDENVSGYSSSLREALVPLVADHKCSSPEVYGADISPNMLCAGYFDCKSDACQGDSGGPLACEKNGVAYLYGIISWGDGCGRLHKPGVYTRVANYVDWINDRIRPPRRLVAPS
Description: HGFA inhibition (Ki). It counts as biochemical.

The target of the next data set is T2, Plasma Kallikrein (Homo sapiens, UniProt P03952).
T2 construct: human Factor Xa, Thrombin, or Plasma Kallikrein (Hematologic Technologies); purchased Hematologic Technologies
Kind of data set: Plasma Kallikrein assay (Ki). Type of data set: biochemical. As to the method: (§1) Factor Xa, Thrombin, and Plasma Kallikrein Assays
(§2) These procedures can be used to determine the constant of inhibition (Ki) for a sample compound of the invention.
(§3) • Assay Buffer: 100 mM Hepes pH 7.8, 140 mM NaCl, 0.1% PEG-8000, 0.02% Tween-80 • Coagulation human Factor Xa, Thrombin, or Plasma Kallikrein (Hematologic Technologies) • Factor: Dilute to 0.45 μg/mL (9.8 nM) in assay buffer. • Substrate: S-2222, S2366 or S2302—(See below—Chromogenix Inc,) Reconstitute at 5 mM in H2O. Dilute to 1.5 mM in assay buffer prior to use. • Samples: Dilute samples to 3% DMSO in assay buffer. Procedure: • 1. Add 50 μL sample to each well. • 2. Add 50 μL appropriately diluted coagulation factor to each well. • 3. Incubate for 5 minutes at room temperature with gentle agitation. • 4. Add 50 μL appropriately diluted substrate to each well. • 5. Agitate plate for 20–25 sec. • 6. Monitor absorbance at 405 nm every 10 sec for a total of 5 minutes at room temperature. • 7. Calculate Vmax over 10 points. Assay—Enzyme, Substrate and Final Concentrations

The target of another data set is tPA (Homo sapiens, UniProt P00750). Description: tPA inhibition (Ki). Type of data set: biochemical.
Another data set has as its target Urokinase (Homo sapiens, UniProt P00749). Kind of data set: Urokinase inhibition (Ki). It counts as biochemical.
Data set [1] deals with APC (Homo sapiens, UniProt P04070). Kind of data set: APC inhibition (Ki). Type of data set: biochemical. The note with it: APC.
Data set [2] has as its system APC. Description: APC inhibition (Ki). The note with it: APC relative to TFVIIa. It counts as biochemical.
The target in a further data set is Acetylcholinesterase (Homo sapiens, UniProt P22303). Description: Acetylcholinesterase inhibition (Ki). It counts as biochemical.
The target in the next data set is T3, F. Xa (Homo sapiens, UniProt P00742).
T3 construct: This complex converts factor X to Xa; purchased Hematologic Technologies
Description: Factor Xa assay (Ki). Type of data set: biochemical. Here is the method: as §1, §2, §3

A further data set has as its target T4, TFVIIa (Homo sapiens, UniProt P08709).
T4 construct: recombinant human factor VIIa; NB #25942–16
Kind of data set: Tissue Factor/Factor VIIa antagonist assay (Ki). Type of data set: biochemical. As to the method:
Tissue Factor/Factor VIIa Antagonist Assay
This procedure can be used to determine the constant of inhibition (Ki) for a sample compound of the invention.
• Assay Buffer: 100 mM Hepes pH 7.8, 140 mM NaCl, 0.1% PEG-8000, 0.02% Tween-80, 5 mM CaCl2 Coagulation • Factor: recombinant human factor VIIa (NB #25942–16) • Cofactor: soluble Tissue Factor (1-219) • Substrate: Chromozym-tPA (Boehringer Mannheim, Cat. #1093 037) Reconstitute at 20 mM in H2O. Dilute to 4 mM in assay buffer with CaCl2 prior to use. • Samples: Dilute samples to 3% DMSO in assay buffer (lacking CaCl2). Procedure: • 1. Prepare a solution of 2 μg/mL (90 nM) tissue factor and 1.5 μg/mL (30 nM) factor VIIa in assay buffer with CaCl2. • 2. Incubate for 15 minutes at room temperature. • 3. Add 50 μL sample to each well. • 4. Add 50 μL tissue factor/factor VIIa solution to each well. • 5. Incubate for 15 minutes at room temperature with gentle agitation. • 6. Add 50 μL substrate to each well. • 7. Agitate plate for 20–25 sec. • 8. Monitor absorbance at 405 nm every 10 sec for a total of 5 minutes at room temperature. • 9. Calculate Vmax over 10 points.

In the next data set the target is T5, XIIA (Homo sapiens, UniProt P00748).
T5 sequence (P00748 373-615 limits assumed): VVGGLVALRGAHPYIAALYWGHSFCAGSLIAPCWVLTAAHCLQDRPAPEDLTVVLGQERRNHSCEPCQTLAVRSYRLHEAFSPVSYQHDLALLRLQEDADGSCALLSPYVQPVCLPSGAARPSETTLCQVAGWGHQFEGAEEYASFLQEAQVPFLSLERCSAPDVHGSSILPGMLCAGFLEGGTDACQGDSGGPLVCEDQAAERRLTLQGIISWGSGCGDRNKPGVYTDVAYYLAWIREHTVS
Description: XIIA inhibition (Ki). Type of data set: biochemical.

The target in the next data set is Trypsin. Kind of data set: Trypsin inhibition (Ki). It counts as biochemical.
The target of a further data set is Chymotrypsin. Kind of data set: Chymotrypsin inhibition (Ki). It counts as biochemical.
A further data set deals with T6, Complement CS1 (Homo sapiens, UniProt P09871).
T6 sequence (P09871 16-688): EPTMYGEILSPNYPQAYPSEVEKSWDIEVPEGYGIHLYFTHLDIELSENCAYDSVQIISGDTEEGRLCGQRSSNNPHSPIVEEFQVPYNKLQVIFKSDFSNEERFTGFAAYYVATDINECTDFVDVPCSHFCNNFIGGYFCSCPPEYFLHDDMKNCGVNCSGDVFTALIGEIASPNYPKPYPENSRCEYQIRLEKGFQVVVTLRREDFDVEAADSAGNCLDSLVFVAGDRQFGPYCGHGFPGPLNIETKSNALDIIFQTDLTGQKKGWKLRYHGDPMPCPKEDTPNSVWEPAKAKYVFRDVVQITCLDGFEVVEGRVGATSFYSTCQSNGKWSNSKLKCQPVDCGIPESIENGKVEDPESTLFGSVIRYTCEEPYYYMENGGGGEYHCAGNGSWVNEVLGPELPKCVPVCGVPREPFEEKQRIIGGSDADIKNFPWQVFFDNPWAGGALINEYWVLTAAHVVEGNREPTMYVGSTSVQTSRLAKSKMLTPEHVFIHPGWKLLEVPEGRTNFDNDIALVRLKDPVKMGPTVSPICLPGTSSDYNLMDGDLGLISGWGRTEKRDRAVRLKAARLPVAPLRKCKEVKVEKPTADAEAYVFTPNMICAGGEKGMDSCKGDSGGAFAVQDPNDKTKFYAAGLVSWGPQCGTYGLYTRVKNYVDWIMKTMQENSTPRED
Kind of data set: Complement CS1 inhibition (Ki). It counts as biochemical.

For a further data set, the target named is Plasmin (Homo sapiens, UniProt P00747). Description: Plasmin inhibition (Ki). It counts as biochemical.
Data set [3] relates to XIA. Kind of data set: XIA inhibition (Ki). Type of data set: biochemical. The note with it: XIA relative to TFVIIa.
In data set [4] the target is XIA (Homo sapiens, UniProt P03951). Kind of data set: XIA inhibition (Ki). The note with it: XIA. It counts as biochemical.
A further data set has as its target T7, Thrombin (Homo sapiens, UniProt P00734).
T7 construct: rapidly converts prothrombin to thrombin; purchased Hematologic Technologies
Description: Thrombin assay (Ki). It counts as biochemical. Here is the method:
as §1, §2, §3

The nature of data set [5]: Plasma concentrations following IV bolus administration in rhesus monkey. The note with it: IV bolus 1 mg/kg. It counts as in vivo. As to the method:
Dosing of Benzofuran Compounds in Rhesus Monkeys
IV Bolus: Inhibitors were formulated in a 1 mg/ml solution of 20–30% PEG 400/sterile water. The drug was administered as an IV bolus over 1 minute at 1 mg/kg. 1.0 ml blood samples were collected at each time point on 20 μl 8.5% K2EDTA. Blood samples for the IV dosed animals were be collected from a short, large bore catheter (needle <25G) placed in the saphenous or cephalic vein for all time points up to 3 hours after dosing. The catheters were then removed, the animals returned to their cages and latter samples collected by venipuncture. Venipuncture samples can be obtained from any superficial vein that can easily be compressed (e.g. cephalic, or saphenous but not from the femoral plexus). Sample time points were taken generally at the following times: pre-dose, 2, 5, 10, 20, 30, 40, 60, 90, 120, 150, 180 minutes and at 4, 6, 12, 24, and 48 hours.

A short description of the next data set: Solubility in water. Type of data set: physicochemical. The note with it: aqueous buffer, thermodynamic from solid, amorphous solid.

Each structure is given as a SMILES string. ≈ marks a conversion by molar mass, not a printed value.

T4 sequence (P08709 61-212 limits assumed): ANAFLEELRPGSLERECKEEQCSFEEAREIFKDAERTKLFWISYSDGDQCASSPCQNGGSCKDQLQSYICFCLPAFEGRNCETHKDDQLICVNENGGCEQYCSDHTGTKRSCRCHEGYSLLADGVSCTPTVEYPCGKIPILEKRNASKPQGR
T4 sequence (P08709 213-466 limits assumed): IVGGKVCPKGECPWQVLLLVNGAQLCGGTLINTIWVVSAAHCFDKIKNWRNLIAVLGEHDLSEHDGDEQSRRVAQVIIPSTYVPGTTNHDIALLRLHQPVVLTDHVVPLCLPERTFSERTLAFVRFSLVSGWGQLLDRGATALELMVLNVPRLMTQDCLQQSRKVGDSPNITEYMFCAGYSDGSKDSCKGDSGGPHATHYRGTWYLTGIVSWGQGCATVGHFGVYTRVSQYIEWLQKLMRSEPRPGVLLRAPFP
T4 sequence (P13726 33-251 partner limits assumed): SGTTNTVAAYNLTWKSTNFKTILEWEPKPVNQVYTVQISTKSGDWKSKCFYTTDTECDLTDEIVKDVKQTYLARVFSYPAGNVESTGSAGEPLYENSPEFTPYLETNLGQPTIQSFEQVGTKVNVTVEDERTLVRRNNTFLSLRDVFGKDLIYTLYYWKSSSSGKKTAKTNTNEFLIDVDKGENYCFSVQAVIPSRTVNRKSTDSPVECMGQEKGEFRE
tPA, sequence (P00750 36-562, species assumed): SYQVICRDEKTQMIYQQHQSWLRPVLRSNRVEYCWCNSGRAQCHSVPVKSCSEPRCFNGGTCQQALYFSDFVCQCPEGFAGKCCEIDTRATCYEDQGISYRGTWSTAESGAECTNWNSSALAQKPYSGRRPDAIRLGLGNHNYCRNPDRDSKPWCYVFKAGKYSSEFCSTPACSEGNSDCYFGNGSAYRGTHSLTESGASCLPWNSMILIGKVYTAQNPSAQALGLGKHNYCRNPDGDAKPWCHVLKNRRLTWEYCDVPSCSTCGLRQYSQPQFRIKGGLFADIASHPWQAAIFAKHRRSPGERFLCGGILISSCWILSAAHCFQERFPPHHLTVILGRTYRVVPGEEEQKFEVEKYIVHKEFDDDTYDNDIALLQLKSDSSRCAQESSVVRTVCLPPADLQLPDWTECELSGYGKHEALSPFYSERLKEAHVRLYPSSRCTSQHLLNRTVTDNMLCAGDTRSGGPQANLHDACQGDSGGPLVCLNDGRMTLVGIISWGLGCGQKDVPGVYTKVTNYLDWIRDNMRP
Plasmin, sequence (P00747 581-810 limits assumed, species assumed): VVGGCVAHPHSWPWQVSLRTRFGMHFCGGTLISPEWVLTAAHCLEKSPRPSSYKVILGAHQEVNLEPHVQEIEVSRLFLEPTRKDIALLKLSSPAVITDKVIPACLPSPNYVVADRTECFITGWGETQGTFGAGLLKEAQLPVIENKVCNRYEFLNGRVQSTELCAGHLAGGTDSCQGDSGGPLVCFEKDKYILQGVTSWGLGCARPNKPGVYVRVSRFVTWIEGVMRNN
Plasmin, sequence (P00747 97-580 limits assumed, species assumed): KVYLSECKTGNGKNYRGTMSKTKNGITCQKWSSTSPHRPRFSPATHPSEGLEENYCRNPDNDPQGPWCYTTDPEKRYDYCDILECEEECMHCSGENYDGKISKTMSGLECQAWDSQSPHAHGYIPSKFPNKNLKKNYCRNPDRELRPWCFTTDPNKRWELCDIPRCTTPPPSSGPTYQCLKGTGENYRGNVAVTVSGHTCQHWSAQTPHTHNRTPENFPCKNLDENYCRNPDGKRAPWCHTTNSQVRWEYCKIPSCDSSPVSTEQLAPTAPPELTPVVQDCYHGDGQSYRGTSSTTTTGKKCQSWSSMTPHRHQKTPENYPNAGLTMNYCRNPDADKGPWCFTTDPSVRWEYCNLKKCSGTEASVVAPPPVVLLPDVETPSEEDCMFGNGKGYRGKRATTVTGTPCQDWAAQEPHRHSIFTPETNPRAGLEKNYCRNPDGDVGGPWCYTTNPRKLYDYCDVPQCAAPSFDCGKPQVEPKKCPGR
T2 sequence (P03952 20-390 limits assumed): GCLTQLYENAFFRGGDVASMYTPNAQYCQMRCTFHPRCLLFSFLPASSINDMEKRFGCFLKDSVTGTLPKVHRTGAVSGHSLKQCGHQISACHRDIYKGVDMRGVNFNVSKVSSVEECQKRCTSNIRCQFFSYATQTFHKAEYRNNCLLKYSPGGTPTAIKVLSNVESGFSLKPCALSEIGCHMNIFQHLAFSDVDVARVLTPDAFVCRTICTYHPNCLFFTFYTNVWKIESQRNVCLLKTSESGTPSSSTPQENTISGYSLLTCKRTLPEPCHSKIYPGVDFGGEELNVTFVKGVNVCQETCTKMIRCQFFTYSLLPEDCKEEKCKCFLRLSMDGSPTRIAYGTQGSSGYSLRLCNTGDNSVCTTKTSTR
T2 sequence (P03952 391-638 limits assumed): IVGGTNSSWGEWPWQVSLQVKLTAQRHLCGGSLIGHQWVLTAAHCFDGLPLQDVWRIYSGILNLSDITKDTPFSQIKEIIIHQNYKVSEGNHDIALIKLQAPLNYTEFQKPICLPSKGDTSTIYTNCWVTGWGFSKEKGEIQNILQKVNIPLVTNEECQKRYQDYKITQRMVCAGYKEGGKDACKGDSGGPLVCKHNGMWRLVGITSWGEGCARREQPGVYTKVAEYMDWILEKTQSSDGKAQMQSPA
Acetylcholinesterase, sequence (P22303 32-614, species assumed): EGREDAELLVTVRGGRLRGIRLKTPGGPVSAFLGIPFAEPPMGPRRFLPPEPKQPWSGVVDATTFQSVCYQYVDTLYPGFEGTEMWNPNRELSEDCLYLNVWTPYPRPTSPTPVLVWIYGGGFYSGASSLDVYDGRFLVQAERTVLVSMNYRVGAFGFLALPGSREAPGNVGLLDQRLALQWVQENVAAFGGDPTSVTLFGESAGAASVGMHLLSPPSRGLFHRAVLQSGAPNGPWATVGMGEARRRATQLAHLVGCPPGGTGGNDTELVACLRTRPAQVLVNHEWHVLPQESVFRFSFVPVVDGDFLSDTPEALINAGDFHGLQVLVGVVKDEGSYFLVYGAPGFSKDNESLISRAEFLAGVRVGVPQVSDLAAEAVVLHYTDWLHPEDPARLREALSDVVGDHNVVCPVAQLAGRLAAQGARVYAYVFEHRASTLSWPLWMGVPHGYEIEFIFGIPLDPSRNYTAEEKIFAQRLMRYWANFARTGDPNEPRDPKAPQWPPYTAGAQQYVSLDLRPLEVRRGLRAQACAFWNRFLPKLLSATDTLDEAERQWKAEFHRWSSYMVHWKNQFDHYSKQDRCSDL
T3 sequence (P00742 41-179 limits assumed): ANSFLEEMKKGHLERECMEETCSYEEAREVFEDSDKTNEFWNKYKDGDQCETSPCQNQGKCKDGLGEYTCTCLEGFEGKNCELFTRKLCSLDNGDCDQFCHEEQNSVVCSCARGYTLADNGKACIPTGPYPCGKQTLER
T3 sequence (P00742 235-488 limits assumed): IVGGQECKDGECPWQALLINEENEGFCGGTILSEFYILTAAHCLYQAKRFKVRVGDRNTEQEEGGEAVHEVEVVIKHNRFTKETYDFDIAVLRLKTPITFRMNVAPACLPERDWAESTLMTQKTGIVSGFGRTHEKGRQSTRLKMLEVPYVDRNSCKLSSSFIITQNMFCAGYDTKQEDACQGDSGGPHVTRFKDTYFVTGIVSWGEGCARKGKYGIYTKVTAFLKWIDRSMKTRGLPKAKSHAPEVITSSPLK
APC (Homo sapiens, UniProt P04070), sequence (P04070 212-461 limits assumed): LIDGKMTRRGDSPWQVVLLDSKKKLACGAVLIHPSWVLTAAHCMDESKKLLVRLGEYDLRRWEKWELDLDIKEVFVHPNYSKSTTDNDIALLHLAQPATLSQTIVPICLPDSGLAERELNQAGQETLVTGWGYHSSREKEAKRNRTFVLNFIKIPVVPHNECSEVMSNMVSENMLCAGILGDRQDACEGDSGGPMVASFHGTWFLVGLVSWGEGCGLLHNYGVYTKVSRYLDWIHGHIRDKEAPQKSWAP
XIA (Homo sapiens, UniProt P03951), sequence (P03951 388-625 limits assumed): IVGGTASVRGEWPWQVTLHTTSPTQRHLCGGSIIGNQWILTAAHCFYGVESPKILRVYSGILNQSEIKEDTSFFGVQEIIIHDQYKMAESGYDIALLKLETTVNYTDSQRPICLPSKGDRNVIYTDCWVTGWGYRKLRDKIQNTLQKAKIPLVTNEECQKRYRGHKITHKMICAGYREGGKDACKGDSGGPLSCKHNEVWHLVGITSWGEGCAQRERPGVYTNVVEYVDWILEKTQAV

In general, Ki refers to a measure of affinity in units of concentration, obtained from inhibition or displacement. For `CCc1cc(C(Nc2ccc(C(=N)N)cc2)C(=O)NS(N)(=O)=O)cc2c(C)coc12` (stereo not shown) [Compound 8], the Ki on HGFA (HGFA) was 6400 nM; on Plasma Kallikrein (Plasma Kallikrein), 82 nM; on tPA (tPA), above 7800 nM; at Urokinase (Urokinase), above 6800 nM; on APC [1] it was 1440 nM; on Acetylcholinesterase it was above 6800 nM. The Ki is above 7000 nM at F. Xa (F. Xa); 4 nM on TFVIIa (TFVIIa); above 8700 nM on XIIA (XIIA); 2100 nM on Trypsin (Trypsin); above 6900 nM on Chymotrypsin (Chymotrypsin); above 6500 nM at Complement CS1 (Complement CS1). The inhibition constant (Ki) is 880 nM on Plasmin (Plasmin), above 8000 nM at XIA [4] and 830 nM at Thrombin (Thrombin). In addition, the Selectivity is reported as 1600 X at HGFA (HGFA relative to TFVIIa); 20 X at Plasma Kallikrein (Plasma Kallikrein relative to TFVIIa); above 1950 X on tPA (tPA relative to TFVIIa); above 1700 X on Urokinase (Urokinase relative to TFVIIa); 360 X with APC [2]; 1700 X at Acetylcholinesterase (Acetylcholinesterase relative to TFVIIa). Further, the Selectivity at F. Xa (F. Xa relative to TFVIIa) is given as above 1750 X; at TFVIIa (TFVIIa (reference)), 1 X; on XIIA (XIIA relative to TFVIIa), above 2175 X; in the data set on Trypsin (Trypsin relative to TFVIIa) it was 525 X; with Chymotrypsin (Chymotrypsin relative to TFVIIa), above 1725 X; on Complement CS1 (Complement CS1 relative to TFVIIa), above 1625 X. Besides, the Selectivity was 220 X at Plasmin (Plasmin relative to TFVIIa), above 2000 X in the data set on XIA [3] and 207 X at Thrombin (Thrombin relative to TFVIIa).
As a reminder, the half-life is the time in which the quantity being followed falls by half. `CCOc1cc(OCC)cc(C(Nc2ccc(C(=N)N)cc2)C(=O)NS(=O)(=O)CC)c1` (stereo not shown) registered a clearance in data set [5] of 8.6 mL/min/kg body weight. This compound had a half-life in data set [5] (plasma) of 1.25 h.
As a reminder, the solubility is the concentration that dissolves in the medium under given conditions. Take `CCc1cc(C(Nc2ccc(/C(N)=N\OCc3ccc(OC)cc3)cc2)C(=O)NS(N)(=O)=O)cc2c(C)coc12` (stereo not shown) [Compound 26]: the results for the solubility in “Solubility in water” (pH 2) and in “Solubility in water” (pH 6.5) were 115 µM (≈ 65 µg/mL) and 98 µM (≈ 55.4 µg/mL), respectively.

(Values after US7273886B2 (Genentech, Inc., priority 2003, dated 2007).)
